In patent US20230322761A1, “DEGRADATION OF BRUTON'S TYROSINE KINASE (BTK) BY CONJUGATION OF BTK INHIBITORS WITH E3 LIGASE LIGAND AND METHODS OF USE” (BEIGENE, LTD., priority 2020, published 2023):

Target: T1, BTK (Homo sapiens, UniProt Q06187)
T1 construct: endogenous in cells; host or cells: TMD-8 cells
Test: BTK degradation in TMD-8 cells, HTRF assay after 6 h treatment
Format: cell-based
Conditions: IC50 (DC50) of BTK degradation
Protocol: TMD-8 cells are treated with compounds diluted in 0.2% DMSO, dilution is done according to the following protocol: (1) make 500× stock solution in DMSO from 1 mM by 6-fold dilution, total 8 doses were included; (2) make 2× solution in cell culture medium by transferring 0.5 μl 500× stock solution into 125 μl medium; (3) 15 μl of 2× solution is added to cells and incubate for 6 h.
After 6 h treatment, add 10 μl 4×lysis buffer to each well; seal the plate and incubate 30 min at room temperature on a plate shaker; Once the cells are lysed, 16 μL of cell lysate are transferred to a PE 384-well HTRF detection plate; 4 μL of pre-mixed HTRF antibodies are added to each well; Cover the plate with a plate sealer, spin 1000 rpm for 1 min, Incubate overnight at room temperature; Read on BMG PheraStar with HTRF protocol (337 nm-665 nm-620 nm).
The IC50 (DC50) value of a compound can be obtained by fitting the following equation
Y=Bottom+(TOP−Bottom)/(1+((IC50/X)^hillslope))
Wherein, X and Y are known values, and IC50, Hillslope, Top and Bottom are the parameters obtained by fitting with software. Y is the inhibition percentage (calculated from the equation), X is the concentration of the compound; IC50 is the concentration of the compound when the 50% inhibition is reached. The smaller the IC50 value is, the stronger the inhibitory ability of the compound is. Vice versa, the higher the IC50 value is, the weaker the ability the inhibitory ability of the compound is; Hillslope represents the slope of the fitted curve, generally around 1*; Bottom represents the minimum value of the curve obtained by data fitting, which is generally 0%±20%; Top represents the maximum value of the curve obtained by data fitting, which is generally 100%±20%. The experimental data were fitted by calculating and analyzing with Dotmatics data analysis software.

T1 sequence (Q06187 whole entry): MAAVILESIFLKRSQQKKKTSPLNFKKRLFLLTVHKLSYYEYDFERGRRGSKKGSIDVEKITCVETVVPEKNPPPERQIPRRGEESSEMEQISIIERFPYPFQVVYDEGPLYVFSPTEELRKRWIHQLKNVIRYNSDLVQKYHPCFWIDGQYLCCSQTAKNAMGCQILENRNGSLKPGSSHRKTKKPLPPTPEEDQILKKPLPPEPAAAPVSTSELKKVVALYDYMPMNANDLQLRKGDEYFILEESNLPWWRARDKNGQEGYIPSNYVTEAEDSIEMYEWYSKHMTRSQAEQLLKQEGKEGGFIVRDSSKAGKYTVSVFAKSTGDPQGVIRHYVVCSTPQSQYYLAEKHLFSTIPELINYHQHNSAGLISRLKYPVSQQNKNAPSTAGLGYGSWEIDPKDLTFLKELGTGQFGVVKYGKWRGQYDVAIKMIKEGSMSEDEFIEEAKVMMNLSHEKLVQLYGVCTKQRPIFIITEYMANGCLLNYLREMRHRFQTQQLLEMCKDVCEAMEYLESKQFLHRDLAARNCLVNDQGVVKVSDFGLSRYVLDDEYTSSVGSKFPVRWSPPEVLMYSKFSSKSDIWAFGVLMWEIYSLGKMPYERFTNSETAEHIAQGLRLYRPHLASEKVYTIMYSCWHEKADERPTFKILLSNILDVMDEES

SMILES | DC50
Cc1cc(-c2n[nH]c3ncc(-c4ccc(N5CCN(CC6CCN(c7ccc(N8CCC(=O)NC8=O)c(C)c7)CC6)CC5)nc4)cc23)ccc1CNC(=O)c1nc(C(C)(C)C)no1 [Example 228, 3-(tert-butyl)-N-(4-(5-(6-(4-((1-(4-(2,4-dioxotetrahydropyrimidin-1(2H)-yl)-3-methylphenyl)piperidin-4-yl)methyl)piperazin-1-yl)pyridin-3-yl)-1H-pyrazolo[3,4-b]pyridin-3-yl)-2-methylbenzyl)-1,2,4-oxadiazole-5-carboxamide] | 2.02 nM
Cc1cc(-c2n[nH]c3ncc(-c4ccc(N5CCN(CC6CCN(c7ccc(N8CCC(=O)NC8=O)cc7)CC6)CC5)cc4)cc23)ccc1[C@@H](C)NC(=O)c1noc(C2(C)CC2)n1 [Example 109, (R)—N-(1-(4-(5-(4-(4-((1-(4-(2,4-dioxotetrahydropyrimidin-1(2H)-yl)phenyl)piperidin-4-yl)methyl)piperazin-1-yl)phenyl)-1H-pyrazolo[3,4-b]pyridin-3-yl)-2-methylphenyl)ethyl)-5-(1-methylcyclopropyl)-1,2,4-oxadiazole-3-carboxamide] | 13.3 nM
Cc1cc(-c2n[nH]c3ncc(-c4ccc(N5CCN(CCC6CCN(c7ccc(N8CCC(=O)NC8=O)c(Cl)c7)CC6)CC5)cc4)cc23)ccc1[C@@H](C)NC(=O)c1ccc(C(C)(C)O)cc1F [Example 104, (R)—N-(1-(4-(5-(4-(4-(2-(1-(3-chloro-4-(2,4-dioxotetrahydropyrimidin-1(2H)-yl)phenyl)piperidin-4-yl)ethyl)piperazin-1-yl)phenyl)-1H-pyrazolo[3,4-b]pyridin-3-yl)-2-methylphenyl)ethyl)-2-fluoro-4-(2-hydroxypropan-2-yl)benzamide] | > 2000 nM
Cc1cc(-c2n[nH]c3ncc(-c4ccc(N5CCN(CCOc6cccc7c6C(=O)N([C@@H]6CCC(=O)NC6=O)C7)CC5)cc4)cc23)ccc1[C@@H](C)NC(=O)c1nc(C(C)(C)C)no1 [Example 226, 3-(tert-butyl)-N—((R)-1-(4-(5-(4-(4-(2-((2-((R)-2,6-dioxopiperidin-3-yl)-3-oxoisoindolin-4-yl)oxy)ethyl)piperazin-1-yl)phenyl)-1H-pyrazolo[3,4-b]pyridin-3-yl)-2-methylphenyl)ethyl)-1,2,4-oxadiazole-5-carboxamide] | 3.04 nM
Cc1cc(-c2n[nH]c3ncc(-c4ccc(C5(F)CCN(CC6CCN(c7ccc(N8CCC(=O)NC8=O)cc7)CC6)CC5)cc4)cc23)ccc1[C@@H](C)NC(=O)c1nc(C(C)(C)C)no1 [Example 203, (R)-3-(tert-butyl)-N-(1-(4-(5-(4-(1-((1-(4-(2,4-dioxotetrahydropyrimidin-1(2H)-yl)phenyl)piperidin-4-yl)methyl)-4-fluoropiperidin-4-yl)phenyl)-1H-pyrazolo[3,4-b]pyridin-3-yl)-2-methylphenyl)ethyl)-1,2,4-oxadiazole-5-carboxamide] | 5.27 nM
Cc1cc(-c2n[nH]c3ncc(-c4ccc(N5CCN(CCC6CCN(c7ccc([C@@H]8CCC(=O)NC8=O)cc7)CC6)CC5)cc4)cc23)ccc1CNC(=O)c1noc(C(C)(C)C)n1 [Example 92, (S)-5-(tert-butyl)-N-(4-(5-(4-(4-(2-(1-(4-(2,6-dioxopiperidin-3-yl)phenyl)piperidin-4-yl)ethyl)piperazin-1-yl)phenyl)-1H-pyrazolo[3,4-b]pyridin-3-yl)-2-methylbenzyl)-1,2,4-oxadiazole-3-carboxamide] | 7.24 nM
Cc1cc(-c2n[nH]c3ncc(-c4ccc(N5CCN(CC6CCN(c7ccc(N8CCC(=O)NC8=O)cc7)CC6)CC5)cc4)cc23)ccc1CNC(=O)c1nc(C(C)(C)C)no1 [Example 20, 3-(tert-butyl)-N-(4-(5-(4-(4-((1-(4-(2,4-dioxotetrahydropyrimidin-1(2H)-yl)phenyl)piperidin-4-yl)methyl)piperazin-1-yl)phenyl)-1H-pyrazolo[3,4-b]pyridin-3-yl)-2-methylbenzyl)-1,2,4-oxadiazole-5-carboxamide] | 3.95 nM
CC(C)(C)c1noc(C(=O)NCc2ccc(-c3n[nH]c4ncc(-c5ccc(C6CCN(CCC7CCN(c8ccc(N9CCC(=O)NC9=O)cc8)CC7)CC6)cc5)cc34)cc2F)n1 [Example 12, 3-(tert-butyl)-N-(4-(5-(4-(1-(2-(1-(4-(2,4-dioxotetrahydropyrimidin-1(2H)-yl)phenyl)piperidin-4-yl)ethyl)piperidin-4-yl)phenyl)-1H-pyrazolo[3,4-b]pyridin-3-yl)-2-fluorobenzyl)-1,2,4-oxadiazole-5-carboxamide] | 5.17 nM
Cc1cc(-c2n[nH]c3ncc(-c4ccc(N5CCN(CC6CCN(c7ccc(N8CC(=O)NC8=O)cc7)CC6)CC5)cc4)cc23)ccc1[C@@H](C)NC(=O)c1nc(C(C)(C)C)no1 [Example 218, (R)-3-(tert-butyl)-N-(1-(4-(5-(4-(4-((1-(4-(2,4-dioxoimidazolidin-1-yl)phenyl)piperidin-4-yl)methyl)piperazin-1-yl)phenyl)-1H-pyrazolo[3,4-b]pyridin-3-yl)-2-methylphenyl)ethyl)-1,2,4-oxadiazole-5-carboxamide] | 19 nM

Continued, values first:

DC50 | SMILES
> 2000 nM | Cc1cc(-c2n[nH]c3ncc(-c4ccc(N5CCN(CC6CCN(c7cc(F)ccc7N7CCC(=O)NC7=O)CC6)CC5)cc4)cc23)ccc1[C@@H](C)NC(=O)c1noc(C(C)(C)C)n1 [Example 90, (R)-5-(tert-butyl)-N-(1-(4-(5-(4-(4-((1-(2-(2,4-dioxotetrahydropyrimidin-1(2H)-yl)-5-fluorophenyl)piperidin-4-yl)methyl)piperazin-1-yl)phenyl)-1H-pyrazolo[3,4-b]pyridin-3-yl)-2-methylphenyl)ethyl)-1,2,4-oxadiazole-3-carboxamide]
2.02 nM | Cc1cc(-c2n[nH]c3ncc(-c4ccc(C5(O)CCN(CC6CCN(c7ccc(N8CCC(=O)NC8=O)cc7)CC6)CC5)cn4)cc23)ccc1[C@@H](C)NC(=O)c1nc(C(C)(C)C)no1 [Example 204, (R)-3-(tert-butyl)-N-(1-(4-(5-(5-(1-((1-(4-(2,4-dioxotetrahydropyrimidin-1(2H)-yl)phenyl)piperidin-4-yl)methyl)-4-hydroxypiperidin-4-yl)pyridin-2-yl)-1H-pyrazolo[3,4-b]pyridin-3-yl)-2-methylphenyl)ethyl)-1,2,4-oxadiazole-5-carboxamide]
1.61 nM | Cc1cc(-c2n[nH]c3ncc(-c4ccc(N5CCN(CCn6cc(C7CCC(=O)NC7=O)cn6)CC5)cc4)cc23)ccc1[C@@H](C)NC(=O)c1noc(C(C)(C)C)n1 (stereo partly drawn) [Example 186, 5-(tert-butyl)-N-((1R)-1-(4-(5-(4-(4-(2-(4-(2,6-dioxopiperidin-3-yl)-1H-pyrazol-1-yl)ethyl)piperazin-1-yl)phenyl)-1H-pyrazolo[3,4-b]pyridin-3-yl)-2-methylphenyl)ethyl)-1,2,4-oxadiazole-3-carboxamide]
7.34 nM | Cc1cc(-c2n[nH]c3ncc(-c4ccc(N5CCN(CC6CCN(c7ccc(C8CCC(=O)NC8=O)cc7)C6)CC5)cc4)cc23)ccc1[C@@H](C)NC(=O)c1noc(C(C)(C)C)n1 (stereo partly drawn) [Example 191, 5-(tert-butyl)-N-((1R)-1-(4-(5-(4-(4-((1-(4-(2,6-dioxopiperidin-3-yl)phenyl)pyrrolidin-3-yl)methyl)piperazin-1-yl)phenyl)-1H-pyrazolo[3,4-b]pyridin-3-yl)-2-methylphenyl)ethyl)-1,2,4-oxadiazole-3-carboxamide]
3 nM | Cc1cc(-c2n[nH]c3ncc(-c4ccc(N5CCN(CCc6ccc(C7CCC(=O)NC7=O)c(F)c6)CC5)cc4)cc23)ccc1[C@@H](C)NC(=O)c1noc(C(C)(C)C)n1 (stereo partly drawn) [Example 36, 5-(tert-butyl)-N-((1R)-1-(4-(5-(4-(4-(4-(2,6-dioxopiperidin-3-yl)-3-fluorophenethyl)piperazin-1-yl)phenyl)-1H-pyrazolo[3,4-b]pyridin-3-yl)-2-methylphenyl)ethyl)-1,2,4-oxadiazole-3-carboxamide]
9.96 nM | Cc1cc(-c2n[nH]c3ncc(-c4ccc(N5CCN(CC6CCN(c7ccc(N8CCC(=O)NC8=O)cc7F)CC6)CC5)cc4)cc23)ccc1[C@@H](C)NC(=O)c1noc(C(C)(C)C)n1 [Example 134, (R)-5-(tert-butyl)-N-(1-(4-(5-(4-(4-((1-(4-(2,4-dioxotetrahydropyrimidin-1(2H)-yl)-2-fluorophenyl)piperidin-4-yl)methyl)piperazin-1-yl)phenyl)-1H-pyrazolo[3,4-b]pyridin-3-yl)-2-methylphenyl)ethyl)-1,2,4-oxadiazole-3-carboxamide]
2.22 nM | Cc1cc(-c2n[nH]c3ncc(-c4ccc(N5CCN(CCc6ccc(N7CCC(=O)NC7=O)cc6)CC5)cn4)cc23)ccc1[C@@H](C)NC(=O)c1noc(C(C)(C)C)n1 [Example 122, (R)-5-(tert-butyl)-N-(1-(4-(5-(5-(4-(4-(2,4-dioxotetrahydropyrimidin-1(2H)-yl)phenethyl)piperazin-1-yl)pyridin-2-yl)-1H-pyrazolo[3,4-b]pyridin-3-yl)-2-methylphenyl)ethyl)-1,2,4-oxadiazole-3-carboxamide]

Same assay, conditions: TMD8, maximum percentage of inhibition (degradation)

Dmax | SMILES
98.3% | Cc1cc(-c2n[nH]c3ncc(-c4ccc(N5CCN(CCc6ccc(C7CCC(=O)NC7=O)c(F)c6)CC5)cc4)cc23)ccc1[C@@H](C)NC(=O)c1noc(C(C)(C)C)n1 (stereo partly drawn) [Example 36, 5-(tert-butyl)-N-((1R)-1-(4-(5-(4-(4-(4-(2,6-dioxopiperidin-3-yl)-3-fluorophenethyl)piperazin-1-yl)phenyl)-1H-pyrazolo[3,4-b]pyridin-3-yl)-2-methylphenyl)ethyl)-1,2,4-oxadiazole-3-carboxamide]
96.4% | Cc1cc(-c2n[nH]c3ncc(-c4ccc(N5CCN(CC6CCN(c7ccc(N8CCC(=O)NC8=O)cc7)CC6)CC5)cc4)cc23)ccc1CNC(=O)c1nc(C(C)(C)C)no1 [Example 20, 3-(tert-butyl)-N-(4-(5-(4-(4-((1-(4-(2,4-dioxotetrahydropyrimidin-1(2H)-yl)phenyl)piperidin-4-yl)methyl)piperazin-1-yl)phenyl)-1H-pyrazolo[3,4-b]pyridin-3-yl)-2-methylbenzyl)-1,2,4-oxadiazole-5-carboxamide]
95.7% | CC(C)(C)c1noc(C(=O)NCc2ccc(-c3n[nH]c4ncc(-c5ccc(C6CCN(CCC7CCN(c8ccc(N9CCC(=O)NC9=O)cc8)CC7)CC6)cc5)cc34)cc2F)n1 [Example 12, 3-(tert-butyl)-N-(4-(5-(4-(1-(2-(1-(4-(2,4-dioxotetrahydropyrimidin-1(2H)-yl)phenyl)piperidin-4-yl)ethyl)piperidin-4-yl)phenyl)-1H-pyrazolo[3,4-b]pyridin-3-yl)-2-fluorobenzyl)-1,2,4-oxadiazole-5-carboxamide]
